# Measurements from patent US10364263B2, “Cyclic phosphates and cyclic phosphoramidates for the treatment of neurologic disorders” (Retrophin, Inc., priority 2015, dated 2019).
# Read-outs that look alike come from different tables or passages of the source.
# Columns and labels:
# [1] = Permeability in porcine brain endothelial cell blood-brain barrier model; format: in vitro ADME; details: pig (endothelial cells), co-cultured with rat astrocytes, pH 7.4, PBECs/As blood-brain barrier model, luminal to basal
# In short: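 Co-culture of primary porcine brain endothelial cells on Transwell inserts over primary rat astrocytes, with TEER >500 Ω/cm^2 and FITC-dextran integrity control. Compound added apically in HBSS/20 mM Hepes pH 7.4/0.1% BSA and basal amount measured usually after 60 min, by LC-MS/MS, fluorescence or scintillation. Papp in cm/s, corrected for cell-free filter.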
# [2] = Stability in human hepatocytes; format: in vitro ADME; details: t1/2, Human Hepatocytes
# [3] = Stability in human plasma; format: in vitro ADME; details: human, plasma, 37° C.
# In short: (§1)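 Test compound at 3 μM (0.1% DMSO) was incubated in mouse or human plasma at 37 °C and sampled in duplicate at 0, 10, 20, 30, 40 and 60 min. Reactions were stopped with acetonitrile/formic acid containing internal standard. Remaining parent was measured by UPLC-MS/MS without a calibration curve.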
# [4] = Stability in mouse plasma; format: in vitro ADME; details: mouse, plasma; for t1/2, Mouse Plasma, Diastereoisomer B: 3 µM
# In short: as §1
# [5] = Chemical stability in aqueous solution (phosphate buffered saline, NMR)
# Description: To measure chemical stability in aqueous solution, the half-life (t1/2), or time needed for the concentration to decrease by half, was determined for select compounds in phosphate buffered saline solution. Compounds were dissolved in a solution containing 10 mM phosphate buffer (pH 7.5) and 5% of D2O to a final concentration of −1 mM. All spectra were obtained at 37° C. on a Bruker Avance 600 NMR spectrometer equipped with an inverse broad-band probe with z-gradients. Data were obtained every 15 min for a total time period of 4 h or longer, according to the observed stability. ^31P NMR was performed at 242.55 MHz, with gated decoupling of the protons. An observation frequency range of 14619.9 Hz and 32 K complex data points were used for acquisition. A pulse angle of 90° and a 4-sec pulse cycle were utilized. Thirty-two accumulations were obtained before Fourier transformation of the free induction decay. ^1H NMR spectra were acquired using the 1DNOESY experiment with water presaturation for better solvent suppression. An observation frequency range of 12019.23 Hz, a 10-sec pulse cycle, and 32 K complex data points were used for acquisition. Sixty-four scans were added prior to Fourier transformation. Integral data were obtained using the TopSpin software.
# Stability was determined based on analysis of disappearance of the compounds as a function of incubation time. Quantification of test compounds was measured as a peak area relative to an internal standard. The elimination constant, k, was calculated by plotting mean disappearance values on a semi-logarithmic scale and fitting with a best fit linear regression. The half-life (t1/2) expressed in hours was derived using Equation 1: t1/2=ln2/(−k). Equation 1:
# [6] = Diastereoisomer A, read-out: Papp Diastereoisomer A
# [7] = Diastereoisomer B, read-out: Papp Diastereoisomer B
# [8] = Diastereoisomer A (upfield shift in 31P NMR), read-out: t1/2, Human Plasma, Diastereoisomer A (converted)
# [9] = Diastereoisomer B, read-out: t1/2, Human Plasma, Diastereoisomer B (converted)
# [10] = pH 7.5, t1/2 (h) Diastereoisomer A, 10 mM phosphate buffer pH 7.5, 37° C., Diastereoisomer A = upfield shift in the 31P NMR
# [11] = pH 7.5, t1/2 (h) Diastereoisomer B, 10 mM phosphate buffer pH 7.5, 37° C., Diastereoisomer B
"Papp A→B at 60 min [1, 6] [×10⁻⁶ cm/s]","Papp A→B at 60 min [1, 7] [×10⁻⁶ cm/s]",half-life at 5 µM ([2]; Diastereoisomer A) [min],half-life at 5 µM ([2]; Diastereoisomer B) [min],"half-life at 3 µM [3, 8] [min]","half-life at 3 µM [3, 9] [min]",half-life at 3 µM [4] [min],"t1/2, Mouse Plasma, Diastereoisomer B [4] [min]","half-life at 1 mM [5, 10] [days]","half-life at 1 mM [5, 11] [days]","half-life at 1 mM ([5]; pH 7.5, t1/2 (h), pH 7.5, 37° C., compound not chiral at phosphorous, one value spanning both columns) [days]","half-life at 1 mM ([5]; pH 7.5, half-lives, phosphate buffered saline solution, both diastereoisomers) [days]",Structure (SMILES)
16,20.7,< 15,< 15,< 9.6,< 9.6,< 9.6,<9.6,3.62,0.542,,,"COC(=O)CCNC(=O)[C@@H]1OP(=O)(OCOC(=O)c2ccccc2)OCC1(C)C (stereo partly drawn) [Compound No. 64, (((4R)-4-((3-methoxy-3-oxopropyl)carbamoyl)-5,5-dimethyl-2-oxido-1,3,2-dioxaphosphinan-2-yl)oxy)methyl benzoate]"
4.79,3.38,142,65.4,44.4,> 60,< 9.6,<9.6,> 3.33,> 3.33,,,"COC(=O)[C@H](C)NP1(=O)OCC(C)(C)[C@H](C(=O)NCCC(=O)OCc2ccncc2)O1 (stereo partly drawn) [compound 20, (2S)-methyl 2-(((4R)-5,5-dimethyl-2-oxido-4-((3-oxo-3-(pyridin-4-ylmethoxy)propyl)carbamoyl)-1,3,2-dioxaphosphinan-2-yl)amino)propanoate]"
0.58,,15,,49.8,,,,,,> 4.17,,"CC1(C)COP(=O)(O)O[C@H]1C(=O)NCCC(=O)O [compound 108, 3-((4R)-2-hydroxy-5,5-dimethyl-2-oxido-1,3,2-dioxaphosphinane-4-carboxamido)propanoic acid]"
9.99,8.47,< 15,< 15,> 60,> 60,< 9.6,<9.6,> 3.33,> 3.33,,,"COC(=O)CCNC(=O)[C@@H]1OP(=O)(N[C@@H](C)C(=O)OCc2cc(C)cc(C)c2)OCC1(C)C (stereo partly drawn) [compound 3, (2S)-3,5-dimethylbenzyl 2-(((4R)-4-((3-methoxy-3-oxopropyl)carbamoyl)-5,5-dimethyl-2-oxido-1,3,2-dioxaphosphinan-2-yl)amino)propanoate]"
20.3,18.3,< 15,< 15,> 60,< 9.6,< 9.6,<9.6,1.69,0.3,,,"COC(=O)CCNC(=O)[C@@H]1OP(=O)(OCOC(=O)C(C)(C)C)OCC1(C)C (stereo partly drawn) [Compound No. 65, (((4R)-4-((3-methoxy-3-oxopropyl)carbamoyl)-5,5-dimethyl-2-oxido-1,3,2-dioxaphosphinan-2-yl)oxy)methyl pivalate]"
22.8,29.9,< 15,< 15,> 60,< 9.6,< 9.6,<9.6,,,,,"COC(=O)CCNC(=O)[C@@H]1OP(=O)(OCOC(=O)OC(C)C)OCC1(C)C (stereo partly drawn) [Compound No. 69, Methyl 3-((4R)-2-(((isopropoxycarbonyl)oxy)methoxy)-5,5-dimethyl-2-oxido-1,3,2-dioxaphosphinane-4-carboxamido)propanoate]"
10.1,14.5,< 15,< 15,> 60,57.6,< 9.6,<9.6,,,,,"CCc1cc(C(=O)OCOP2(=O)OCC(C)(C)[C@H](C(=O)NCCC(=O)OC)O2)n(C)n1 (stereo partly drawn) [Compound No. 84, (((4R)-4-((3-methoxy-3-oxopropyl)carbamoyl)-5,5-dimethyl-2-oxido-1,3,2-dioxaphosphinan-2-yl)oxy)methyl 3-ethyl-1-methyl-1H-pyrazole-5-carboxylate]"
3.52,3.12,27.6,< 15,,,,,> 4.17,> 2.5,,> 2.5,"COC(=O)CCNC(=O)[C@@H]1OP(=O)(N[C@@H](C)C(=O)OCc2ccccc2)OCC1(C)C (stereo partly drawn) [Compound No. 11, Benzyl ((4R)-4-((3-methoxy-3-oxopropyl)carbamoyl)-5,5-dimethyl-2-oxido-1,3,2-dioxaphosphinan-2-yl)-L-alaninate]"
3.35,2.61,< 15,< 15,57,54,< 9.6,<9.6,,,,,"COC(=O)CCNC(=O)[C@@H]1OP(=O)(N[C@@H](C)C(=O)OCCc2ccccc2)OCC1(C)C (stereo partly drawn) [Compound No. 2, Methyl 3-((4R)-5,5-dimethyl-2-oxido-2-(((S)-1-oxo-1-phenethoxypropan-2-yl)amino)-1,3,2-dioxaphosphinane-4-carboxamido)propanoate]"
0.45,,67.2,,> 60,,30.6,,,,,,"CC(C)(C)C(=O)OCO[P@@]1(=O)OCC(C)(C)[C@H](C(=O)NCCC(=O)O)O1 [Compound No. 91, 3-((2S,4R)-5,5-dimethyl-2-oxido-2-((pivaloyloxy)methoxy)-1,3,2-dioxaphosphinane-4-carboxamido)propanoic acid]"
